Measured values published in patent publication US20220162561A1, “COMPOSITION FOR PROMOTING SECRETION OF EXTRACELLULAR VESICLES” (priority 2019, published 2022).

Experiments:
U-87 MG cells [1] = assay: Test Example 1: promotion of secretion of extracellular vesicles, Tim4-CD9 / Tim4-CD63 ELISA of culture supernatant; format: cell-based; conditions: 24 hours
Method: For the detection of extracellular vesicles contained in the culture supernatant, the Tim4-CD63 ELISA method or Tim4-CD9 ELISA method mentioned later was used.
To a 384-well plate (#464718 manufactured by Thermo Fisher Scientific K.K.) was added 1 μg/mL Tim4 protein prepared in Carbonate Buffer (a solution containing 71.4 mM NaHCO3 and 28.6 mM Na2CO3), and it was made a solid phase. The 384-well plate was washed with a 0.05% (v/v %) Tween 20-containing TBS (Tris-Buffer Saline) solution (hereinafter sometimes referred to as “TBST solution”), and then, 50 μL/well of a TBST solution containing 1% (w/v %) BSA was added thereto to carry out a blocking treatment for 1 hour. Next, 30 μL of the culture supernatant recovered above was added to the well, and further 10 μL of an 8 mM CaCl2) solution was added thereto to bind extracellular vesicles to the Tim4 protein. At this time, as a comparative object, a compound-untreated culture supernatant (solvent alone, control) was added to the Tim4 protein solid-phased plate in the same manner. Subsequently, 30 μL/well of 1 μg/mL Anti-human CD63 Antibody (#353014 available from BioLegend Inc.) diluted with a TBST solution containing 2 mM CaCl2) was added thereto and the mixture was reacted for 1 hour. To the mixture was added 50 μL/well of a TBST solution containing 2 mM CaCl2), and then, the TBST solution was removed. After repeating this operation three times, 30 μL/well of 80 ng/mL HRP-conjugated Anti-mouse IgG (#405306 available from BioLegend Inc.) diluted with a TBST solution containing 2 mM CaCl2) was added thereto and the mixture was reacted for 1 hour. Finally, 30 μL/well of a TMB solution (#05298-80 available from Nacalai Tesque Inc.) was added to the mixture and the mixture was reacted for 30 minutes, and then, 30 μL/well of a 1M H2504 solution was added thereto to stop the reaction and by measuring an absorbance at 450 nm to detect the amount of the extracellular vesicles. A relative value when the compound-untreated group (control) was made 1 was calculated. […]

293T cells [2] = assay: Test Example 13: cell proliferation activity, Cell Count Reagent SF; format: cell-based
Method: After 30 minutes, absorbance at 450 nm was measured to evaluate cell proliferation activity.

293T cells [3] = assay: Test Example 12: cytotoxicity, LDH activity in culture supernatant; format: cell-based; conditions: concentration of at least about 0.3 μM or less
Method: (§1) After stirring 10 mL of deactivated FBS and 2 mL of a 50% (w/v %) Poly(ethylene glycol) 10,000 solution (#81280 available from Sigma-Aldrich Co., LLC) at 4° C. for 2 hours, extracellular vesicles were precipitated under the centrifugation conditions of 1,500×g at 4° C. for 30 minutes, and the supernatant was recovered to prepare Exosome-free FBS. Next, 293 cells (CRL-1573TM available from ATCC) or 293T cells (CRL-3216TM available from ATCC) were suspended in Advanced DMEM (#12491015 available from Thermo Fisher Scientific K.K.) containing 2% (v/v %) Exosome-free FBS with 2×10^4 cells/200 μL, seeded on an adhesive surface 96-well plate (#3595 manufactured by Corning Inc.), and pre-culture for 24 hours was carried out. […] The activity of lactate dehydrogenase (LDH) contained in the culture supernatant was measured using
(§2) Cytotoxicity LDH Assay Kit-WST (#CK12 manufactured by Dojindo Laboratories). […] The reaction was stopped by adding 25 μL of Stop Solution, and the cytotoxicity was evaluated by measuring the absorbance at 490 nm. The activities of LDH of the dead cell group (sample to which 20 μL of Lysis Buffer was added to compound-untreated cells 15 minutes before recovery of the culture solution) and the culture solution (culture solution in which no cell culture was carried out) were also measured in the same manner, and cytotoxicity of each compound was evaluated.

293 cells = assay: as above; format: cell-based; conditions: concentration of at least about 0.3 μM or less
Method: as §1, §2

U-87 MG cells [4] = conditions: concentration of at least about 2 μM or less
Method: After stirring 10 mL of deactivated FBS and 2 mL of a 50% (w/v %) Poly(ethylene glycol) 10,000 solution (#81280 available from Sigma-Aldrich Co., LLC) at 4° C. for 2 hours, extracellular vesicles were precipitated under the centrifugation conditions of 1,500×g at 4° C. for 30 minutes, and the supernatant was recovered to prepare Exosome-free FBS.

SMILES	secretion of CD9 and/or CD63-positive extracellular vesicles (U-87 MG cells [1]; 5 μM)	secretion of CD63-positive extracellular vesicles (U-87 MG cells [1]; 5 μM)	effect on the proliferative activity (293T cells [2]; concentration of at least about 0.03 μM (30 nM) or less)	cytotoxicity (LDH amount in the culture supernatant) (293T cells [3])	secretion of CD9 and/or CD63-positive extracellular vesicles (U-87 MG cells [1]; 10 μM)	cytotoxicity (LDH amount in the culture supernatant) (293 cells)	effect on the proliferative activity (293T cells [2]; concentration of at least about 0.3 μM or less)	cytotoxicity to U-87 MG cells (LDH amount in the culture supernatant) (U-87 MG cells [4])
COC1=CC(c2cc3ccccc3[nH]2)=N/C1=C\c1[nH]c(C)cc1C.CS(=O)(=O)O [Example 5, Obatoclax Mesylate]	promotes secretion	strongly promoted secretion	do not significantly affect					
CC(=O)O.Cc1cc2c(C(C)C)c(O)c(O)c(C=O)c2c(O)c1-c1c(C)cc2c(C(C)C)c(O)c(O)c(C=O)c2c1O (racemic) [Example 1, (±)-Gossypol Acetate]				low cytotoxicity	strongly promoted secretion	low cytotoxicity	do not significantly affect	low
